From patent US7914780B1, “Aminopeptidase A (APA) targeting peptides for the treatment of cancer” (Board of Regents, the University of Texas System, priority 2000, dated 2011)
Peptide text beside a SMILES is read from it.

Columns and labels:
[1] = test system: EF43-fgf4-derived tumors; assay: Experimental therapy of EF43-fgf4-derived tumors; format: in vivo, Balb/c mice
Experimental: For experimental therapy, Balb/c mice bearing EF43-fgf4-derived tumors were established and tumor volumes determined as described (Deroanne et al., 1997; Hajitou et al., 2001). Treatments in tumor-bearing mice were started 5 (peptides) to 7 days (antibodies) after cell inoculation (10^5 cells/mouse). Reagents were administered by ip and sc routes.
Tumor-bearing mice received vehicle, [sequence] (SEQ ID NO:2) or control peptides and tumors were monitored (FIG. 7B).
The inventors used an established regimen of two anti-APA monoclonal antibodies (ASD-37/41) with synergistic APA inhibitory properties (Assmann et al., 1992, Mentzel et al., 1999) on the same animal model. Tumor-bearing mice received vehicle, ASD-37/41, or isotype control IgG and tumors were monitored (FIG. 7C).

[2] = test system: HMECs; assay: Chemotaxic (Boyden chamber) cell migration assay; format: cell-based, human
Experimental: Cell migration assays were performed in a 48-well Boyden chamber (NeuroProbe; Gaithersburg, Md.) as described (Bussolino et al., 1995). Indicated concentrations of […] (SEQ ID NO:2) peptide or negative control peptide (1 mM) were placed in the lower chamber compartment in complete M199 medium. Subconfluent HMECs were harvested and 1×10^5 cells were seeded in the upper chamber compartment in complete M199 medium. Cells were allowed to migrate for 5 h at 37° C. in a humidified 5% CO2 atmosphere. Filter was removed and cells on the upper side were scraped off. Migrated cells were fixed and Giemsa-stained.
(§1) Because of the enzymatic inhibitory activity of APA-binding peptides, the inventors reasoned that they might affect endothelial cell function. The inventors correlated the effect of APA inhibition by the […] (SEQ ID NO:2) peptide on the migration and proliferation of endothelial cells. The inventors used human dermal microvascular endothelial cells (HMEC) in which the APA expression was verified by immunostaining with RC38 and the APA activity by its specific enzyme assay. […] (SEQ ID NO:2) peptide suppressed the migration of HMECs in the Boyden chamber assay (FIG. 3B). Suppression in cell migration was dose-dependent and commensurate with inhibition of APA enzymatic activity. […] Similarly, proliferation of HMECs was suppressed by […] (SEQ ID NO:2) (˜40% at 1 mM) in a dose-dependent manner (FIG. 3C).

[3] = test system: VEGF-induced CAM neovascularization; assay: Chick embryo chorioallantoic membrane (CAM) assay; format: in vivo, chicken
Experimental: Fertilized chicken eggs were incubated in constant humidity at 37° C. for 3 days. Two to three ml of albumin was removed through a square opening to detach the developing CAM. The opening was sealed with a glass plate and the eggs were incubated for 5 days. […] […] CAMs were examined daily until day 12, photographed in ovo with a stereomicroscope and emerging capillaries were counted (Ribatti et al., 1997).
In this in vivo model, neovascularization is stimulated with VEGF adsorbed on to a gelatin sponge placed on the CAM. […] CAMs were examined on E12 and neovascularization was quantified by counting the number of emerging capillaries (FIG. 4B). Significant induction of neovascularization (57.0±1.41 blood vessels) was found when a sponge with VEGF was placed on the CAM compared to a sponge with no growth factors (12.0±2.8 blood vessels; t-test, P<0.01). […]

[4] = molecular target: aminopeptidase N (Homo sapiens, UniProt P15144); assay: Aminopeptidase N enzymatic activity; format: biochemical
[5] = test system: HMECs; assay: Endothelial cell growth assay (crystal violet); format: cell-based, human
Experimental: HMECs were seeded (˜10,000 cells/well) and allowed to attach for 24 hours in complete M199 medium (Sigma; St. Louis, Mo.). The indicated concentrations of […] (SEQ ID NO:2) or 1 mM negative control peptide were added to the cells in complete M199 medium. HMECs were then serially fixed in 2.5% glutaraldehyde, stained with 0.1% crystal violet in 20% methanol, and solubilized in 10% acetic acid. Cell growth was evaluated by measuring absorbance at 590 nm. A calibration curve with linear correlation between absorbance and cell number (103-105 HMECs) was used for the assay.
as §1

[6] = test system: HMECs; assay: Three-dimensional cell culture on Matrigel (cord/tube formation); format: cell-based, human
Experimental: Matrigel (BD Biosciences; Bedford, Mass.) was added to 48-well tissue culture plates and allowed to solidify at 37° C. HMECs (˜10^4 cells) were added to the wells and allowed to adhere to the Matrigel for 30 minutes at 37° C. Cell medium was replaced containing the indicated concentrations of […] (SEQ ID NO:2) or a negative control peptide (both at 1 mM) in complete medium. Plates were examined and photographed after 16 hours.
To determine whether inhibition of APA enzyme activity with […] (SEQ ID NO:2) peptide would affect angiogenesis, the effect of the peptide was tested in vitro and in vivo. First, the inventors evaluated the ability of HMECs to differentiate into capillary-like structures characteristic of angiogenesis in the presence of […] (SEQ ID NO:2) on a gel of reconstituted basement membrane matrix (Matrigel). The formation of cord/tube-like structures was progressively impaired by increasing concentrations of […] (SEQ ID NO:2) peptide, relative to the network formation in controls without peptide (FIG. 4A, upper left panel) or with an unrelated control peptide at 1 mM concentration (FIG. 4A, upper right panel). The number and length of capillary-like branching structures was reduced at 0.3 mM […] […]

[7] = molecular target: T1, APA-transfected SK-RC-49 cells (Homo sapiens, UniProt Q07075); assay: Cell surface panning of CX3CX3CX3C phage display library on APA-transfected cells; format: binding; details: for Round 2 (%) - share of randomly selected phage clones displaying the sequence: after second round of panning on SK-RC-49/APA cells
T1 construct: stably transfected with a mammalian expression vector encoding the full-length APA cDNA; expressed in transfected cells; host or cells: SK-RC-49 renal carcinoma cells (SK-RC-49/APA)
Experimental: Briefly, 10^10 transducing units (TU) of a CX3CX3CX3C (SEQ ID NO:14; C, cysteine; X, any amino acid residue) phage display random library are pre-absorbed on SK-RC-49 parental cells. The pre-cleared CX3CX3CX3C phage library (˜10^10 TU) is added to 106 detached APA-transfected SK-RC-49 cells in binding medium (20 mM HEPES, 2% FCS in DMEM). Cell panning was performed at 4° C. to minimize post-binding events such as receptor-mediated internalization (Giordano et al., 2001). Cells were washed with binding medium and cell bound phage were recovered and amplified by infection of K91Kan E. coli. Serial dilutions were plated on Luria-Bertani (LB) agar plates with tetracycline and kanamycin. The number of TU was determined by bacterial colony counting.
The inventors pre adsorbed 1010 transducing units (TU) of a CX3CX3CX3C (C, cysteine; X, any amino acid residue; SEQ ID NO:14) phage display random library on SK-RC-49 parental cells. Next, the pre-cleared CX3CX3CX3C (SEQ ID NO:14) phage library (˜1010 TU) was added to 106 detached APA-transfected SK-RC-49 cells in binding medium (20 mM HEPES, 2% FCS in DMEM). Cell panning was performed at 4° C. to minimize post-binding events such as receptor-mediated internalization (Giordano et al., 2001). Cells were washed with binding medium and cell bound phage were recovered and amplified by infection of K91 Kan E. coli. Serial dilutions were plated on Luria-Bertani (LB) agar plates with tetracycline and kanamycin. The number of TU was determined by bacterial colony counting.
To identify peptides capable of binding to APA, the inventors screened APA-transfected cells with a phage display library (Smith and Scott, 1993). The inventors stably transfected SK-RC-49 renal carcinoma cells with a vector expressing full-length APA cDNA. APA functionality was verified in transfected cells by an enzyme activity assay specific for APA.

[8] = molecular target: T2, SK-RC-49/APA cells (Homo sapiens, UniProt Q07075); assay: Phage binding assay on SK-RC-49/APA cells versus SK-RC-49 cells; details: for Phage binding to SK-RC-49/APA cells relative to SK-RC-49 cells: individual phage clones
T2 construct: stably transfected with a mammalian expression vector encoding the full-length APA cDNA; expressed in transfected cells; host or cells: SK-RC-49 renal carcinoma cells (SK-RC-49/APA)
Experimental: Binding assays were performed on cells with 109 TU phage input. Increasing concentrations of synthetic […] (SEQ ID NO:2) or control peptides were used to evaluate competitive inhibition of phage binding. APA was immunocaptured on microtiter wells with RC38 and incubated with 109 TU of phage in 3% BSA in PBS. Wells were washed with 1% BSA, 0.01% Tween-20 in PBS and phage were recovered by infection of K91kan E. coli. Serial dilutions were plated on LB agar plates containing tetracycline and kanamycin. The number of TU was determined by bacterial colony counting.
Phage displaying enriched peptide motifs were tested individually for APA binding. Phage displaying the inserts […] (SEQ ID NO:3), […] (SEQ ID NO:1) or […] The inventors synthesized peptides containing APA-binding motifs (consensus sequence […] (SEQ ID NO:2); Table 1). Binding of phage displaying […] Binding of […] Whether the selected peptides would bind to the isolated APA protein was also evaluated. […] The inventors used phage displaying […] (SEQ ID NO:3), […] (SEQ ID NO:4), or […] (SEQ ID NO:1) in binding assays to the immunocaptured APA.

[9] = test system: MDA-MB-435 human breast carcinoma-derived tumor xenografts; assay: Tumor homing of phage in vivo; design: species or system nude mice; details: intravenous
Experimental: Nude mice bearing tumor xenografts derived from MDA-MB-435 human breast cancer cells were generated as described (Arap et al., 1998). 109 TU of […] (SEQ ID NO:8)-displaying phage or fd-tet phage were injected intravenously to anesthetized mice. Phage were allowed to circulate for 5 minutes and the animals were perfused through the left ventricle of the heart with DMEM. The tumor and control organs were dissected and equal amounts of tissue were homogenized. Homogenates were washed with ice-cold DMEM containing a protease inhibitor cocktail (Sigma; St. Louis, Mo.) and 0.1% BSA. Tissue-bound phage were recovered as described above the cell panning. Tissue samples from the injected animals were fixed, sectioned at 5 μm and stained with an anti-M13 antibody.
The inventors next evaluated the ability of APA binding peptides to home to tumor blood vessels in vivo. Phage were administered intravenously to nude mice bearing human breast carcinoma MDA-MB-435-derived xenografts. Phage homing was quantified by recovery from tissue homogenates by bacterial infection. […] […] Homing of […] (SEQ ID NO:3) phage to tumor vasculature was confirmed by immunohistochemical staining of phage on tissue sections.

[10] = 1 mM peptide in VEGF-adsorbed sponge, E12
[11] = competition with synthetic peptide
[12] = negative control peptide (1 mM)

T2 sequence (Q07075 whole entry): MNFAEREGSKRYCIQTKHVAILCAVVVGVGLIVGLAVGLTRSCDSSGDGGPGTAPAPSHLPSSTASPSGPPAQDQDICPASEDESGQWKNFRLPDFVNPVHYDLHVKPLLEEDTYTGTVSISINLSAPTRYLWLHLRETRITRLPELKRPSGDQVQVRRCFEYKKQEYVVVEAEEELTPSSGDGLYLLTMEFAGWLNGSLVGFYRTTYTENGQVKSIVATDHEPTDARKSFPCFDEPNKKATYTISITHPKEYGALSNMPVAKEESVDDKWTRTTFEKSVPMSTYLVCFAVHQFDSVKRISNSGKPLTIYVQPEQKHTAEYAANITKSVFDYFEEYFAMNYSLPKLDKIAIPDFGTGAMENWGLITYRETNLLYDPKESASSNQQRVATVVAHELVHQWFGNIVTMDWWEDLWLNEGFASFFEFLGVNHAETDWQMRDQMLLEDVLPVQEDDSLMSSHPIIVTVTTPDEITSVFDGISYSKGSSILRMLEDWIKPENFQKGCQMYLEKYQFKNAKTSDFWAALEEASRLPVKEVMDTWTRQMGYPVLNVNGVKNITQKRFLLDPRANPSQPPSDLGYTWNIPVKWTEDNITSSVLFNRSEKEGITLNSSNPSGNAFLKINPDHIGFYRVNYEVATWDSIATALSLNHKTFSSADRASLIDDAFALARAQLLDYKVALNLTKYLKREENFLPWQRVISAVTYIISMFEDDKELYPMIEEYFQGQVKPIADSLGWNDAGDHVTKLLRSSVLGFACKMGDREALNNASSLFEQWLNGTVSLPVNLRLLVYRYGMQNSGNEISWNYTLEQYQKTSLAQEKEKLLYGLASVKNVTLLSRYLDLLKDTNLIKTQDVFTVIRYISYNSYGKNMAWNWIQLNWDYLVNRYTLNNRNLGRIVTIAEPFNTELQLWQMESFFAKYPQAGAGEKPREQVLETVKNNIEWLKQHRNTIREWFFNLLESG
T1 sequence (Q07075 whole entry): as above
aminopeptidase N, sequence (P15144 whole entry, species assumed): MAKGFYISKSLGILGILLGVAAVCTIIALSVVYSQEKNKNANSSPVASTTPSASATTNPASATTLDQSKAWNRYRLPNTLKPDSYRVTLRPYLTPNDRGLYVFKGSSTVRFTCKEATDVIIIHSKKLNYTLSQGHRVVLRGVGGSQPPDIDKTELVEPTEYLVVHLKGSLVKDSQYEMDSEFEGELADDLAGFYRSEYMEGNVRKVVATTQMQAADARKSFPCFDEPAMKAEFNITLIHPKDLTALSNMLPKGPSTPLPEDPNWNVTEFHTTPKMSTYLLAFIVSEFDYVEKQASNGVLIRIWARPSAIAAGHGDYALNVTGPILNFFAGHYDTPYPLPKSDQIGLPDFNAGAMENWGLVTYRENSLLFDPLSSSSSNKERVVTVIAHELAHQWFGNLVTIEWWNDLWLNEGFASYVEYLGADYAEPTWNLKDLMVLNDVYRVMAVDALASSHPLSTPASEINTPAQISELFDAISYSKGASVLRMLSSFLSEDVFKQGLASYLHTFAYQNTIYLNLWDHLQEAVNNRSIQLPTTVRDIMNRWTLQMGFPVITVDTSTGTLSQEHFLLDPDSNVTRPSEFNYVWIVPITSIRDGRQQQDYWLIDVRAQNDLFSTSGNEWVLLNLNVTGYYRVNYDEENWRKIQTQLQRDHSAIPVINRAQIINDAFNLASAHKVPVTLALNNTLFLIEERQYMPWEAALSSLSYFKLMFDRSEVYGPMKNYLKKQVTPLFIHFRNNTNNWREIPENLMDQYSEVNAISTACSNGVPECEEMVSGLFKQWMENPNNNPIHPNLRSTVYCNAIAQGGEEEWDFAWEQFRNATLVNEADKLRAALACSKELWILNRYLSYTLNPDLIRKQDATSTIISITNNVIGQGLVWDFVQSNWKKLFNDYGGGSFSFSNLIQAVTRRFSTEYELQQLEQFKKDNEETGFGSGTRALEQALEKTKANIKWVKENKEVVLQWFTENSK

CC[C@H](C)[C@H](NC(=O)[C@H](CO)NC(=O)[C@H](CCC(=O)O)NC(=O)[C@H](CS)NC(=O)[C@H](CCC(=O)O)NC(=O)[C@H](CCCNC(=N)N)NC(=O)[C@@H]1CCCN1C(=O)[C@@H](N)CS)C(=O)N[C@@H](CS)C(=O)O (H-CPRECESIC-OH)
Tumor volume ([1]; peptides 250 μg/mouse/dose, end of two weeks): 1,366±190 mm^3
Inhibition of cell migration ([2]; 100 μM peptide): significant inhibition
Suppression in cell migration ([2]; 1 mM peptide, 5 h): Up to 60%
Effect on number or branching of the growing blood vessels ([3]; 0.1 mM and 0.3 mM peptide): did not affect
Inhibition of VEGF-induced CAM neovascularization [3, 10]: 40%
Number of emerging capillaries [3, 10]: 35.5±1.4 blood vessels
Effect on enzymatic activity of aminopeptidase N [4]: did not affect
Inhibition of cell proliferation ([5]; 0.3 mM peptide): Inhibition of cell proliferation was also observed
Suppression of proliferation of HMECs ([5]; 1 mM peptide): ~40%
Effect on cell proliferation ([5]; peptide concentrations lower than 0.3 mM): no significant effect
Number and length of capillary-like branching structures ([6]; 0.3 mM peptide): reduced
Cell interconnections and capillary network organization ([6]; 1 mM peptide): severely lost

CAVACWADCQLGC
Round 2 (%) - share of randomly selected phage clones displaying the sequence [7]: 5%

CGTGCAVECEVVC
Round 2 (%) - share of randomly selected phage clones displaying the sequence [7]: 5%

CLGQCASICVNDC
Round 2 (%) - share of randomly selected phage clones displaying the sequence [7]: 5%
Effect of synthetic […] peptide on phage binding to SK-RC-49/APA cells [8, 11]: not affected by the synthetic peptide
Phage binding to SK-RC-49/APA cells relative to SK-RC-49 cells [8]: preferentially bound to SK-RC-49/APA cells

CPKVCPRECESNC (phage-displayed)
Phage homing by recovery from tissue homogenates ([9]; tumor versus control organs (brain)): enriched in tumors compared to control organs
Phage homing by immunohistochemical staining of tissue sections ([9]; tumor versus normal brain blood vessels): Strong phage staining was observed in tumor blood vessels
Round 2 (%) - share of randomly selected phage clones displaying the sequence [7]: 5%
Effect of synthetic […] peptide on phage binding to SK-RC-49/APA cells [8, 11]: inhibited by the synthetic peptide
Phage binding to SK-RC-49/APA cells relative to SK-RC-49 cells [8]: preferentially bound to SK-RC-49/APA cells

CPRECESN
Efficacy in vivo ([1]; mouse, in vivo): showed efficacy in vivo

CSGLCTVQCLEGC (phage-displayed)
Round 2 (%) - share of randomly selected phage clones displaying the sequence [7]: 5%

CSMMCLEGCDDWC (phage-displayed)
Round 2 (%) - share of randomly selected phage clones displaying the sequence [7]: 5%

CYNLCIRECESICGADGACWTWCADGCSRSC (phage-displayed)
Round 2 (%) - share of randomly selected phage clones displaying the sequence [7]: 50%
Round 3 (%) - share of randomly selected phage clones displaying the sequence ([7]; after third round of panning on SK-RC-49/APA cells): 100%
Effect of synthetic CPRECESIC peptide on phage binding to SK-RC-49/APA cells [8, 11]: inhibited by the synthetic peptide
Phage binding to SK-RC-49/APA cells relative to SK-RC-49 cells [8]: preferentially bound to SK-RC-49/APA cells

GACVRLSACGA [negative control peptide, unrelated synthetic peptide used as a negative control unless otherwise indicated, reference compound]
Effect on cell migration [2, 12]: affected neither cell migration nor proliferation
Number of emerging capillaries [3, 10]: 56.5±2.12 blood vessels
Effect on cell proliferation [5, 12]: affected neither cell migration nor proliferation
